According to patent US20240300936A1 (priority 2021, published 2024):
Counter-ions that a name gives are not always drawn. Like-named read-outs stand apart in the source and are kept apart here.

Tested on: HELA cells
Test: HELA cell proliferation assay (CellTitre-Glo, 6 days)
Assay type: cell-based
Conditions: Homo sapiens, 144 h
[1] = HELA cells, 6 days treatment, CellTitre-Glo, read-out: HeLa pIC50 (converted)

Row | SMILES | IC50 [1] [M] | IC50 (HeLa, read-out: HeLa pIC50 (M) (converted))
1 | Nc1nc(NC2COc3cc(F)cc(F)c32)nc(-c2ccc3cn[nH]c3c2)n1 (stereo not drawn) [Example 90, N2-(4,6-Difluoro-2,3-dihydrobenzofuran-3-yl)-6-(1H-indazol-6-yl)-1,3,5-triazine-2,4-diamine] | 1.55e-06 | 
2 | Cn1ncc2ccc(-c3nc(N)nc(NC(C)(C)c4nn(C(F)F)cc4Cl)n3)cc21 [Example 97, N4-[1-[4-chloro-1-(difluoromethyl)pyrazol-3-yl]-1-methyl-ethyl]-6-(1-methylindazol-6-yl)-1,3,5-triazine-2,4-diamine] | 7.94e-07 | 
3 | CC(C)(Nc1nc(N)nc(-c2ccc3cn[nH]c3c2)n1)c1cccc(C(F)(F)F)n1 [Example 4, 6-(1H-indazol-6-yl)-N2-[1-methyl-1-[6-(trifluoromethyl)-2-pyridyl]ethyl]-1,3,5-tr iazine-2,4-diamine hydrochloride] |  | 1.7e-07
4 | Nc1nc(NCc2cccc(C(F)(F)F)n2)nc(-c2ccc3cn[nH]c3c2)n1 [Example 8, 6-(1H-indazol-6-yl)-N2-[[6-(trifluoromethyl)-2-pyridyl]methyl]-1,3,5-triazine-2,4-diamine] | 9.33e-07 | 
5 | Cc1ccc(CNc2nc(N)nc(-c3ccc4cn[nH]c4c3)n2)c(F)c1F [Example 88, N2-[(2,3-Difluoro-4-methyl-phenyl)methyl]-6-(1H-indazol-6-yl)-1,3,5-triazine-2,4-diamine] | 1.29e-06 | 
6 | CC(C)(Nc1nc(N)nc(-c2ccc3cncn3c2)n1)c1ccccn1 [Example 72, 6-imidazo[1,5-a]pyridin-6-yl-N2-[1-methyl-1-(2-pyridyl)ethyl]-1,3,5-triazine-2,4-di amine] | 4.07e-07 | 
7 | Nc1nc(NC2(c3ccn(C(F)F)n3)CC2)nc(-c2ccc3cncn3c2)n1 [Example 35, N4-[1-[1-(Difluoromethyl)pyrazol-3-yl]cyclopropyl]-6-imidazo[1,5-a]pyridin-6-yl-1,3,5-triazine-2,4-diamine] | 1.48e-07 | 
8 | Nc1nc(NC2(c3nn(C(F)F)cc3Cl)CC2)nc(-c2ccc3cn[nH]c3c2)n1 [Example 84, N4-[1-[4-chloro-1-(difluoromethyl)pyrazol-3-yl]cyclopropyl]-6-(1H-indazol-6-yl)-1,3,5-triazine-2,4-diamine] | 6.46e-07 | 
9 | Cc1cccc(CCNc2nc(N)nc(-c3ccc4cn[nH]c4c3)n2)n1 [Example 54, 6-(1H-indazol-6-yl)-N2-[2-(6-methyl-2-pyridyl)ethyl]-1,3,5-triazine-2,4-diamine] | 1.66e-06 | 
10 | Cc1ncc2ccc(-c3nc(N)nc(NC(C)(C)c4cccc(F)c4F)n3)cn12 [Example 39, N4-[1-(2,3-difluorophenyl)-1-methyl-ethyl]-6-(3-methylimidazo[1,5-a]pyridin-6-yl)-1,3,5-triazine-2,4-diamine] | 4.17e-07 | 
11 | Nc1nc(NC2(c3ccn(C(F)F)n3)CCC2)nc(-c2ccc3cn[nH]c3c2)n1 [Example 81, N2-[1-[1-(Difluoromethyl)pyrazol-3-yl]cyclobutyl]-6-(1H-indazol-6-yl)-1,3,5-tria zine-2,4-diamine] | 2.14e-07 | 
12 | Nc1nc(NCc2cccc(F)c2Cl)nc(-c2ccc3cn[nH]c3c2)n1 [Example 24, N2-[(2-chloro-3-fluoro-phenyl)methyl]-6-(1H-indazol-6-yl)-1,3,5-triazine-2,4-dia mine] | 2.88e-07 | 
13 | Nc1nc(NC2(c3c[nH]cn3)CC2)nc(-c2ccc3cn[nH]c3c2)n1 [Example 86, N2-[1-(1H-Imidazol-4-yl)cyclopropyl]-6-(1H-indazol-6-yl)-1,3,5-triazine-2,4-dia mine; 2,2,2-trifluoroacetate] | 1e-05 | 
14 | Nc1nc(NCc2c(Cl)ccc(F)c2F)nc(-c2ccc3cn[nH]c3c2)n1 [Example 51, N2-[(6-chloro-2,3-difluoro-phenyl)methyl]-6-(1H-indazol-6-yl)-1,3,5-triazine-2,4-di amine] | 1.48e-06 | 
15 | Cc1ncc2ccc(-c3nc(N)nc(NC(C)(C)c4ccn(C(F)F)n4)n3)cn12 [Example 37, N4-[1-[1-(difluoromethyl)pyrazol-3-yl]-1-methyl-ethyl]-6-(3-methylimidazo[1,5-a]pyridin-6-yl)-1,3,5-triazine-2,4-diamine] | 3.55e-07 | 
